From ChEMBL document CHEMBL3885861, “Open TG-GATES”

Species on record: Rattus norvegicus
Assay: Open TG-GATES - Regimen: Single
Assay type: toxicity, organism-based, Sprague-Dawley
Set-up: regimen Single, gender Male, age 6 weeks
Settings: in vivo, po, route gavage; for APTT / Bas / Eos / Fbg / Hb / Ht / Lym / MCH / MCHC / MCV / Mono / Neu / PT / Plat / RBC / Ret / WBC: tissue Blood; for KIDNEY_L / KIDNEY_R / KIDNEY_TOTAL: tissue Kidney; for LIVER: tissue Liver; for A/G / ALP / ALT / AST / BUN / CRE / Ca / Cl / DBIL / GLC / IP / K / LDH / Na / PL / RALB / TBIL / TC / TG / TP / gamma-GTP: tissue Plasma
[1] = 1000 mg/kg, 3 h, dose level Middle
[2] = 1000 mg/kg, 6 h, dose level Middle
[3] = 1000 mg/kg, 9 h, dose level Middle
[4] = 1000 mg/kg, 24 h, dose level Middle
[5] = 2000 mg/kg, 3 h, dose level High
[6] = 2000 mg/kg, 6 h, dose level High
[7] = 2000 mg/kg, 9 h, dose level High
[8] = 2000 mg/kg, 24 h, dose level High

Clc1c(Cl)c(Cl)c(Cl)c(Cl)c1Cl [PERCHLOROBENZENE]
TERMINAL_BW [1]: 222.7 g
APTT [1]: 18.7 s
Bas [1]: 0%
Eos [1]: 1%
Fbg [1]: 227 mg/dL
Hb [1]: 13.3 g/dL
Ht [1]: 38%
Lym [1]: 78%
MCH [1]: 21.8 pg
MCHC [1]: 35%
MCV [1]: 62.1 fL
Mono [1]: 3.2%
Neu [1]: 16.4%
PT [1]: 11.8 s
Plat [1]: 122.1 x10_4/uL
RBC [1]: 612 x10_4/ul
Ret [1]: 7.6%
WBC [1]: 85.3 x10_2/uL
KIDNEY_L [1]: 1 g
KIDNEY_R [1]: 1 g
KIDNEY_TOTAL [1]: 1.9 g
LIVER [1]: 10.4 g
A/G [1]: 1.7
ALP [1]: 992 IU/L
ALT [1]: 35.2 IU/L
AST [1]: 79.2 IU/L
BUN [1]: 11.6 mg/dL
CRE [1]: 0.4 mg/dL
Ca [1]: 10.9 mg/dL
Cl [1]: 104 meq/L
DBIL [1]: 0.066 mg/dL
GLC [1]: 198.4 mg/dL
IP [1]: 8.8 mg/dL
K [1]: 3.8 meq/L
LDH [1]: 214 IU/L
Na [1]: 141.6 meq/L
PL [1]: 143.8 mg/dL
RALB [1]: 3.5 g/dL
TBIL [1]: 0.1 mg/dL
TC [1]: 68.6 mg/dL
TG [1]: 94.8 mg/dL
TP [1]: 5.5 g/dL
gamma-GTP [1]: 1 IU/L
TERMINAL_BW [2]: 217.7 g
APTT [2]: 18.9 s
Bas [2]: 0.2%
Eos [2]: 1%
Fbg [2]: 223.2 mg/dL
Hb [2]: 13.4 g/dL
Ht [2]: 38.5%
Lym [2]: 71.2%
MCH [2]: 21.6 pg
MCHC [2]: 34.9%
MCV [2]: 62.1 fL
Mono [2]: 3.2%
Neu [2]: 23.4%
PT [2]: 12.2 s
Plat [2]: 132.8 x10_4/uL
RBC [2]: 620.2 x10_4/ul
Ret [2]: 7.3%
WBC [2]: 100.6 x10_2/uL
KIDNEY_L [2]: 1 g
KIDNEY_R [2]: 0.9 g
KIDNEY_TOTAL [2]: 1.9 g
LIVER [2]: 9 g
A/G [2]: 1.7
ALP [2]: 1078.8 IU/L
ALT [2]: 33.4 IU/L
AST [2]: 79 IU/L
BUN [2]: 10 mg/dL
CRE [2]: 0.4 mg/dL
Ca [2]: 10.5 mg/dL
Cl [2]: 103.4 meq/L
DBIL [2]: 0.064 mg/dL
GLC [2]: 186 mg/dL
IP [2]: 9 mg/dL
K [2]: 4.1 meq/L
LDH [2]: 224 IU/L
Na [2]: 141.4 meq/L
PL [2]: 127.4 mg/dL
RALB [2]: 3.4 g/dL
TBIL [2]: 0.1 mg/dL
TC [2]: 69.4 mg/dL
TG [2]: 55.2 mg/dL
TP [2]: 5.4 g/dL
gamma-GTP [2]: 1 IU/L
TERMINAL_BW [3]: 216.4 g
APTT [3]: 19.1 s
Bas [3]: 0.2%
Eos [3]: 1%
Fbg [3]: 220.6 mg/dL
Hb [3]: 13.5 g/dL
Ht [3]: 38.5%
Lym [3]: 72%
MCH [3]: 21.2 pg
MCHC [3]: 34.9%
MCV [3]: 60.6 fL
Mono [3]: 2.8%
Neu [3]: 23%
PT [3]: 12.3 s
Plat [3]: 124.7 x10_4/uL
RBC [3]: 636 x10_4/ul
Ret [3]: 6.9%
WBC [3]: 72.6 x10_2/uL
KIDNEY_L [3]: 1 g
KIDNEY_R [3]: 1 g
KIDNEY_TOTAL [3]: 1.9 g
LIVER [3]: 8.8 g
A/G [3]: 1.6
ALP [3]: 926.6 IU/L
ALT [3]: 27.4 IU/L
AST [3]: 63.4 IU/L
BUN [3]: 11.2 mg/dL
CRE [3]: 0.3 mg/dL
Ca [3]: 10.5 mg/dL
Cl [3]: 103.4 meq/L
DBIL [3]: 0.058 mg/dL
GLC [3]: 201.2 mg/dL
IP [3]: 10.4 mg/dL
K [3]: 3.8 meq/L
LDH [3]: 191.4 IU/L
Na [3]: 142 meq/L
PL [3]: 121.2 mg/dL
RALB [3]: 3.3 g/dL
TBIL [3]: 0.1 mg/dL
TC [3]: 61 mg/dL
TG [3]: 39 mg/dL
TP [3]: 5.4 g/dL
gamma-GTP [3]: 1.2 IU/L
TERMINAL_BW [4]: 230.6 g
APTT [4]: 18.3 s
Bas [4]: 0.2%
Eos [4]: 1%
Fbg [4]: 240.8 mg/dL
Hb [4]: 13.6 g/dL
Ht [4]: 39.3%
Lym [4]: 74.2%
MCH [4]: 21.3 pg
MCHC [4]: 34.5%
MCV [4]: 61.6 fL
Mono [4]: 3%
Neu [4]: 20.6%
PT [4]: 11.7 s
Plat [4]: 128 x10_4/uL
RBC [4]: 637.6 x10_4/ul
Ret [4]: 6.5%
WBC [4]: 80.8 x10_2/uL
KIDNEY_L [4]: 1 g
KIDNEY_R [4]: 1 g
KIDNEY_TOTAL [4]: 2.1 g
LIVER [4]: 11.1 g
A/G [4]: 1.5
ALP [4]: 901 IU/L
ALT [4]: 35.4 IU/L
AST [4]: 66.2 IU/L
BUN [4]: 14.2 mg/dL
CRE [4]: 0.4 mg/dL
Ca [4]: 11 mg/dL
Cl [4]: 103.4 meq/L
DBIL [4]: 0.056 mg/dL
GLC [4]: 204.8 mg/dL
IP [4]: 6.9 mg/dL
K [4]: 3.8 meq/L
LDH [4]: 230.6 IU/L
Na [4]: 141.4 meq/L
PL [4]: 152.8 mg/dL
RALB [4]: 3.4 g/dL
TBIL [4]: 0.096 mg/dL
TC [4]: 80.4 mg/dL
TG [4]: 133.6 mg/dL
TP [4]: 5.6 g/dL
gamma-GTP [4]: 1 IU/L
TERMINAL_BW [5]: 219.3 g
APTT [5]: 19.9 s
Bas [5]: 0.4%
Eos [5]: 1%
Fbg [5]: 223.4 mg/dL
Hb [5]: 13.8 g/dL
Ht [5]: 38.5%
Lym [5]: 76.4%
MCH [5]: 22.1 pg
MCHC [5]: 35.7%
MCV [5]: 62 fL
Mono [5]: 2.2%
Neu [5]: 19.2%
PT [5]: 12 s
Plat [5]: 128.8 x10_4/uL
RBC [5]: 621.4 x10_4/ul
Ret [5]: 7.4%
WBC [5]: 104.4 x10_2/uL
KIDNEY_L [5]: 1 g
KIDNEY_R [5]: 1 g
KIDNEY_TOTAL [5]: 2 g
LIVER [5]: 10.1 g
A/G [5]: 1.6
ALP [5]: 1055.8 IU/L
ALT [5]: 37.2 IU/L
AST [5]: 76.8 IU/L
BUN [5]: 10.8 mg/dL
CRE [5]: 0.4 mg/dL
Ca [5]: 11 mg/dL
Cl [5]: 103 meq/L
DBIL [5]: 0.062 mg/dL
GLC [5]: 192.6 mg/dL
IP [5]: 9.3 mg/dL
K [5]: 3.8 meq/L
LDH [5]: 231.2 IU/L
Na [5]: 141.4 meq/L
PL [5]: 151 mg/dL
RALB [5]: 3.4 g/dL
TBIL [5]: 0.1 mg/dL
TC [5]: 74.6 mg/dL
TG [5]: 132 mg/dL
TP [5]: 5.6 g/dL
gamma-GTP [5]: 1.2 IU/L
TERMINAL_BW [6]: 215.7 g
APTT [6]: 19.3 s
Bas [6]: 0.2%
Eos [6]: 1%
Fbg [6]: 239.6 mg/dL
Hb [6]: 13.6 g/dL
Ht [6]: 39.1%
Lym [6]: 74%
MCH [6]: 21.2 pg
MCHC [6]: 34.6%
MCV [6]: 61 fL
Mono [6]: 2.6%
Neu [6]: 20.8%
PT [6]: 12 s
Plat [6]: 134.1 x10_4/uL
RBC [6]: 641.6 x10_4/ul
Ret [6]: 7.1%
WBC [6]: 105.2 x10_2/uL
KIDNEY_L [6]: 0.9 g
KIDNEY_R [6]: 0.9 g
KIDNEY_TOTAL [6]: 1.8 g
LIVER [6]: 9 g
A/G [6]: 1.8
ALP [6]: 1089.2 IU/L
ALT [6]: 34 IU/L
AST [6]: 77.2 IU/L
BUN [6]: 9.4 mg/dL
CRE [6]: 0.4 mg/dL
Ca [6]: 10.6 mg/dL
Cl [6]: 102.8 meq/L
DBIL [6]: 0.072 mg/dL
GLC [6]: 196.2 mg/dL
IP [6]: 9.3 mg/dL
K [6]: 3.9 meq/L
LDH [6]: 219 IU/L
Na [6]: 141.2 meq/L
PL [6]: 132.6 mg/dL
RALB [6]: 3.5 g/dL
TBIL [6]: 0.1 mg/dL
TC [6]: 73.8 mg/dL
TG [6]: 55 mg/dL
TP [6]: 5.5 g/dL
gamma-GTP [6]: 1 IU/L
TERMINAL_BW [7]: 214.9 g
APTT [7]: 17.8 s
Bas [7]: 0%
Eos [7]: 1%
Fbg [7]: 224.6 mg/dL
Hb [7]: 13.5 g/dL
Ht [7]: 38.5%
Lym [7]: 74.2%
MCH [7]: 21.5 pg
MCHC [7]: 35.1%
MCV [7]: 61.4 fL
Mono [7]: 2.2%
Neu [7]: 21%
PT [7]: 12 s
Plat [7]: 126.2 x10_4/uL
RBC [7]: 626.2 x10_4/ul
Ret [7]: 7.3%
WBC [7]: 92.9 x10_2/uL
KIDNEY_L [7]: 1 g
KIDNEY_R [7]: 1 g
KIDNEY_TOTAL [7]: 1.9 g
LIVER [7]: 9 g
A/G [7]: 1.7
ALP [7]: 944.6 IU/L
ALT [7]: 26.4 IU/L
AST [7]: 68.4 IU/L
BUN [7]: 10.6 mg/dL
CRE [7]: 0.4 mg/dL
Ca [7]: 10.6 mg/dL
Cl [7]: 103.4 meq/L
DBIL [7]: 0.064 mg/dL
GLC [7]: 207.2 mg/dL
IP [7]: 10.7 mg/dL
K [7]: 4.1 meq/L
LDH [7]: 216.6 IU/L
Na [7]: 141.2 meq/L
PL [7]: 130.2 mg/dL
RALB [7]: 3.4 g/dL
TBIL [7]: 0.1 mg/dL
TC [7]: 68 mg/dL
TG [7]: 44 mg/dL
TP [7]: 5.4 g/dL
gamma-GTP [7]: 0.8 IU/L
TERMINAL_BW [8]: 231.5 g
APTT [8]: 18.5 s
Bas [8]: 0.2%
Eos [8]: 1%
Fbg [8]: 233.4 mg/dL
Hb [8]: 13.7 g/dL
Ht [8]: 39.3%
Lym [8]: 76.4%
MCH [8]: 21 pg
MCHC [8]: 34.8%
MCV [8]: 60.4 fL
Mono [8]: 2.6%
Neu [8]: 19%
PT [8]: 11.6 s
Plat [8]: 126.2 x10_4/uL
RBC [8]: 651.6 x10_4/ul
Ret [8]: 6%
WBC [8]: 100 x10_2/uL
KIDNEY_L [8]: 1 g
KIDNEY_R [8]: 0.9 g
KIDNEY_TOTAL [8]: 1.9 g
LIVER [8]: 11.1 g
A/G [8]: 1.5
ALP [8]: 1190.4 IU/L
ALT [8]: 36.2 IU/L
AST [8]: 71.4 IU/L
BUN [8]: 14.8 mg/dL
CRE [8]: 0.4 mg/dL
Ca [8]: 10.7 mg/dL
Cl [8]: 103.4 meq/L
DBIL [8]: 0.052 mg/dL
GLC [8]: 195.6 mg/dL
IP [8]: 7.4 mg/dL
K [8]: 3.9 meq/L
LDH [8]: 229.6 IU/L
Na [8]: 141.2 meq/L
PL [8]: 139.6 mg/dL
RALB [8]: 3.3 g/dL
TBIL [8]: 0.1 mg/dL
TC [8]: 74 mg/dL
TG [8]: 108.8 mg/dL
TP [8]: 5.5 g/dL
gamma-GTP [8]: 1.2 IU/L
